Test results from the OPERA property sets (Mansouri et al. 2018).
Where a SMILES comes first, the peptide text is derived from it.

SMILES | logP
CCCCCCCCCCCCN(C)N=Nc1ccc(C(N)=O)cc1 | 6.58
CC(C)(C)[N+]([O-])=Cc1ccc([N+](=O)[O-])cc1 | 1.4
CCCN(CCC)C1CCc2c(cccc2OC)C1 (stereo not drawn) | 4.24
COc1ccc2c(c1)OCN(CCO[N+](=O)[O-])C2=O | 2.09
CC(N)C(=O)NC(Cc1ccccc1)C(=O)NCC(=O)NC(C(=O)NC(Cc1ccccc1)C(=O)O)C(C)C (stereo not drawn) (H-AFGVF-OH; configuration not given here) | -0.59
OCC1OC(n2cnc3c(Nc4ccccc4)ncnc32)C(O)C1O (stereo not drawn) | 1.28
Nc1cccc(Cn2cnc3ccccc32)c1 | 1.92
O=c1cc(CSc2nc3ccccc3s2)occ1O | 2.08
CC(=O)OC1CC(OC2C(O)CC(OC3C(O)CC(OC4CCC5(C)C(CCC6C5CC(O)C5(C)C(C7=CC(=O)OC7)CCC65O)C4)OC3C)OC2C)OC(C)C1OC(C)=O (stereo not drawn) | 2.59
COc1ccc(CCNCC(O)COc2ccc(Cc3nc(C(C)=O)c[nH]3)cc2)cc1OC (stereo not drawn) | 2.3
O=C(Nc1ccccc1)NC1CC(C(=O)O)Nc2cc(Cl)cc(Cl)c21 (stereo not drawn) | 3.28
CN(C)CCOc1ccc(Cl)cc1 | 3.05
CCC(C)C(NC(=O)C(C)N)C(=O)O (stereo not drawn) | -2.6
CC(=O)OC(C)(C)C1CCC2(C)CCCC(O)C2C1 (stereo not drawn) | 3.62
Cc1cccc(C)c1Cc1ccccn1 | 3.48
CNCCC=Cc1cccnc1 | 1.13
CCOCCOCCOC1CCC(NC(=O)NC23CC4CC(CC(C4)C2)C3)CC1 (stereo not drawn) | 2.9

SMILES | logP
S=c1[nH]nc(Cn2ccc3ccccc32)n1-c1ccccc1 | 2.68
N#CCCOC1Cc2c(O)cc(O)cc2OC1c1ccc(O)c(O)c1 (stereo not drawn) | 0.96
FC(F)(F)c1ccccc1CNc1[nH]cnc2ncnc1-2 | 3.04
OCC1OC(n2cnc3c(NCCCCc4ccccc4)ncnc32)C(O)C1O (stereo not drawn) | 2.29
CCNc1[nH]cnc2ncnc1-2 | 0.92
Cc1nc2ccccc2c(=O)n1CC(=O)NNc1ccccc1 | 1.34
CCNC(=S)NS(=O)(=O)c1cnccc1NC1CCCCC1 | 3.1
CC(C)C(NC(=O)C(Cc1ccccc1)NC(=O)CNC(=O)CN)C(=O)NC(Cc1ccccc1)C(=O)O (stereo not drawn) (H-GGFVF-OH; configuration not given here) | -1.4
CC(C)CC(N)C(=O)NC(Cc1ccc(O)cc1)C(=O)O (stereo not drawn) | -1.94
CC(C)OC(=O)C(=Cc1ccccc1)S(=O)(=O)c1ccc(Cl)cc1 | 4.18
O=C1c2cc(Cl)ccc2OCN1CCO[N+](=O)[O-] | 2.3
Cc1oc2cc3oc(=O)ccc3cc2c1C | 2.93
CC1NCCc2c1[nH]c1ccccc21 (stereo not drawn) | 2.06
COc1c([N+](=O)[O-])cc(C(=O)O)cc1[N+](=O)[O-] | 1.73
CCCCN(CCO)CCCC | 2.65
Cc1nc(C(Cl)(Cl)Cl)nc(C(Cl)(Cl)Cl)n1 | 3.78
CC(C)C(NC(=O)C(Cc1ccccc1)NC(=O)CNC(=O)CNC(=O)C(N)Cc1c[nH]c2ccccc12)C(=O)O (stereo not drawn) (H-WGGFV-OH; configuration not given here) | -0.44

Next, values leading:

logP | SMILES
0.6 | O=C1N=C(N2CCOCC2)CN1c1ccccc1
2.74 | CCCCN(C)CC(=O)Nc1c(C)cccc1C
1.73 | CCN(CC)CCCC(C)NC(=O)c1ccc([N+](=O)[O-])cc1[N+](=O)[O-] (stereo not drawn)
1.5 | O=C1N=C(N2CCOCC2)CN1c1ccc(Cl)cc1
0.58 | CCOC(=O)CCCn1cc([N+](=O)[O-])nc1C
1.3 | CC(C)=CCNc1ncnc2c1ncn2[C@@H]1O[C@H](CO)[C@@H](O)[C@H]1O
1.08 | CCNc1nc(N)nc(O)n1
4.2 | CCCNC(=O)c1[nH]cc(-c2ccc(Cl)cc2)c1N1CCOCC1
2.55 | CCN(CC)CCSC(=NO)c1nc(Cc2ccccc2)no1
2.3 | O=C1C=C(N2CCOCC2)C(=O)N1c1ccc(Cl)cc1
-0.7 | CCCNC(=O)CCC(=O)NCc1c(O)c(=O)cc(C)n1C
5.6 | CCCC1C(=O)N(CCN(C)C)c2ccccc2CC1c1ccc(OC)cc1 (stereo not drawn)
0.67 | CCCc1nc(NCC(=O)N(C)C)nc(N2CCOCC2)n1
0.93 | CCN(CC)CCC(=O)Nc1c(C)cc(N)cc1C
